The values that follow come from ChEMBL document CHEMBL1201862, “PubChem BioAssay data set” (2004).

Some test systems named below: PC-3; 786-0; TK-10; MDA-MB-435; SF-295; SK-MEL-5; SNB-19; MDA-MB-231; MDA-N; OVCAR-3; M14; COLO 205; K562; SK-MEL-28; CCRF-CEM; ACHN; SK-OV-3; MOLT-4; HCT-15; UACC-257.
Holding throughout (test): DTP human tumour cell line panel, 48 h

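1) Cells in 96-well plates. 2) Compound, 48 h, 5 concentrations. 3) Linear interpolation between surrounding doses. 4) Unreached endpoint = highest concentration. GI50 is the concentration that inhibits growth by half.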 Activity calls are given as the source filed them. Rule as the data show it: active = GI50 up to about 1.1 µM and inactive = higher. Bounds are passed on as bounds.

Turning to `CCOC(=O)CC[C@H](N)C(=O)N[C@@H](Cc1ccc(N(CCCl)CCCl)cc1)C(=O)OCC`, the GI50 was 1.29 µM (inactive) with PC-3; 0.685 µM (active) with 786-0; 1.47 µM (inactive) with TK-10; 1.39 µM (inactive) in the experiment on MDA-MB-435; 3.6 µM (inactive) in the experiment on SF-295; 1.5 µM (inactive) in the experiment with SK-MEL-5. For the same compound, the GI50 in the experiment on SNB-19 was 4.69 µM (inactive); in the experiment on MDA-MB-231 it was 1.94 µM (inactive); in the experiment with MDA-N, 0.944 µM (active); in the experiment with OVCAR-3, 0.652 µM (active); in the experiment with M14 it was 0.261 µM (active); in the experiment on COLO 205, 0.938 µM (active). Moreover, the GI50 in the experiment with K562 is 0.895 µM (active); with SK-MEL-28, 0.869 µM (active); with CCRF-CEM, < 0.0308 µM (active); in the experiment with ACHN it was < 0.0348 µM (active); in the experiment on SK-OV-3 it was 1.48 µM (inactive); with MOLT-4, 0.0345 µM (active). The GI50 is 0.726 µM in the experiment with HCT-15 and 1.5 µM (inactive) in the experiment on UACC-257.
In the case of `CC1CSC(=S)N1C(=O)N1C(=S)SCC1C` (stereo not given), the GI50 in the experiment on PC-3 is 24.7 µM (inactive); in the experiment with 786-0, 27.8 µM (inactive); with TK-10, 27.8 µM (inactive); with MDA-MB-435 it was 17.2 µM (inactive); with SF-295, 45.8 µM (inactive); in the experiment on SK-MEL-5, 17 µM (inactive). Further, the GI50 with SNB-19 was 63.8 µM (inactive); in the experiment with MDA-MB-231, 22.2 µM (inactive); in the experiment on MDA-N, 19.6 µM (inactive); with OVCAR-3, 27.4 µM (inactive); with M14, 21.9 µM (inactive); in the experiment on COLO 205 it was 16.3 µM (inactive). Moreover, the GI50 in the experiment on K562 is 20.1 µM (inactive); with SK-MEL-28, 14.3 µM (inactive); in the experiment with CCRF-CEM, 8.73 µM (inactive); with ACHN, 18.5 µM (inactive); in the experiment with SK-OV-3 it was 40.9 µM (inactive); in the experiment on MOLT-4 it was 23.6 µM (inactive). Besides, the GI50 in the experiment on HCT-15 is 16.5 µM; with UACC-257, 19.3 µM (inactive).
As for `c1ccc2c(c1)c1c(c3ccccc32)CN2CCCC2C1` (stereo not given), the GI50 is 3 µM (inactive) with PC-3; 3.94 µM (inactive) with 786-0; 10.4 µM (inactive) in the experiment with TK-10; 4.42 µM (inactive) in the experiment on MDA-MB-435; 3.09 µM (inactive) in the experiment on SF-295; 3.51 µM (inactive) in the experiment with SK-MEL-5. In addition, the GI50 in the experiment on SNB-19 is 2.66 µM (inactive); in the experiment on MDA-MB-231, 3.2 µM (inactive); with MDA-N, 2.82 µM (inactive); with OVCAR-3 it was 3.26 µM (inactive); in the experiment on M14 it was 3.67 µM (inactive); in the experiment with COLO 205, 3.63 µM (inactive). For the same compound, the GI50 in the experiment with K562 was 8.39 µM (inactive); in the experiment on SK-MEL-28, 2.62 µM (inactive); in the experiment with CCRF-CEM, 2.99 µM (inactive); in the experiment on ACHN it was 3.01 µM (inactive); in the experiment on SK-OV-3 it was 7.52 µM (inactive); with MOLT-4 it was 4.61 µM (inactive). For the same compound, the GI50 in the experiment with HCT-15 was 4.09 µM; in the experiment with UACC-257, 4.05 µM (inactive).
`O=c1[nH]c(N/N=C\C(O)C(O)C(O)C(O)CO)nc2ccccc12` (stereo not given): the GI50 in the experiment with PC-3, with 786-0, in the experiment with TK-10, in the experiment with MDA-MB-435, with SF-295 and with SK-MEL-5 was > 100 µM (inactive) in each case. Besides, the GI50 in the experiment with SNB-19, with MDA-MB-231, in the experiment on MDA-N, in the experiment with OVCAR-3, in the experiment with M14 and with COLO 205 was > 100 µM (inactive) throughout. Also, the GI50 in the experiment with K562, with SK-MEL-28, in the experiment with CCRF-CEM, in the experiment on ACHN, in the experiment with SK-OV-3 and with MOLT-4 was > 100 µM (inactive) throughout. Also, the GI50 was > 100 µM with HCT-15 and > 100 µM (inactive) in the experiment on UACC-257.
On to `C=C(c1ccccc1)[C@@]1(O)CC[C@@H]1N(CC#N)Cc1ccccc1`, for which the GI50 in the experiment on PC-3 is 22.9 µM (inactive); with 786-0, 18.4 µM (inactive); in the experiment with TK-10, 20.8 µM (inactive); with MDA-MB-435 it was 22.5 µM (inactive); with SF-295, 58.1 µM (inactive); in the experiment with SK-MEL-5 it was 15.9 µM (inactive). In addition, the GI50 is 36.6 µM (inactive) in the experiment on SNB-19; 14 µM (inactive) in the experiment with MDA-MB-231; 22.3 µM (inactive) with MDA-N; 12.3 µM (inactive) with OVCAR-3; 17.3 µM (inactive) with M14; 16.3 µM (inactive) in the experiment on COLO 205. In addition, the GI50 in the experiment with K562 is 42.1 µM (inactive); in the experiment on SK-MEL-28, 17.2 µM (inactive); with CCRF-CEM, 32 µM (inactive); with ACHN, 20.8 µM (inactive); with SK-OV-3 it was 98.9 µM (inactive); with MOLT-4, 26.3 µM (inactive). In addition, the GI50 in the experiment with HCT-15 is 18.7 µM; in the experiment with UACC-257 it was 17.8 µM (inactive).
On to `Cc1ccc(-c2c(-c3ccccc3)[nH]c(C)c2C(=O)ONC(=O)c2ccccc2)cc1`, for which the GI50 is 5.92 µM (inactive) in the experiment with PC-3; 3.03 µM (inactive) in the experiment with 786-0; 5.52 µM (inactive) in the experiment on TK-10; 2.19 µM (inactive) with MDA-MB-435; 1.93 µM (inactive) in the experiment with SF-295; 6.41 µM (inactive) in the experiment on SK-MEL-5. Moreover, the GI50 in the experiment on SNB-19 is 6.38 µM (inactive); with MDA-MB-231 it was 3.4 µM (inactive); with MDA-N, 2.35 µM (inactive); in the experiment on OVCAR-3 it was 4.49 µM (inactive); in the experiment with M14, 5.19 µM (inactive); in the experiment on COLO 205, 11.7 µM (inactive). The GI50 in the experiment on K562 was 2.55 µM (inactive); in the experiment on SK-MEL-28, 12.1 µM (inactive); with CCRF-CEM it was 2.97 µM (inactive); in the experiment on ACHN, 1.91 µM (inactive); in the experiment on SK-OV-3, 14.4 µM (inactive); in the experiment with MOLT-4, 2.74 µM (inactive). Moreover, the GI50 in the experiment with HCT-15 is 9.25 µM; with UACC-257 it was 13.7 µM (inactive).
On to `COc1ccc(C2CC(c3c(C)nn(-c4ccccc4)c3-c3ccc(C)cc3O)=NN2c2ccccc2)cc1` (stereo not given), for which the GI50 with PC-3 is 3.78 µM (inactive); in the experiment on 786-0 it was > 100 µM (inactive); with TK-10, > 100 µM (inactive); in the experiment with MDA-MB-435, 15 µM (inactive); in the experiment with SF-295 it was 6.93 µM (inactive); in the experiment with SK-MEL-5 it was 18.5 µM (inactive). Besides, the GI50 in the experiment with SNB-19 is > 29 µM (inactive); with MDA-MB-231 it was > 46.5 µM (inactive); with MDA-N, 21.4 µM (inactive); in the experiment with OVCAR-3, > 50.5 µM (inactive); in the experiment on M14, 14.2 µM (inactive); with COLO 205 it was 12.7 µM (inactive). For the same compound, the GI50 was 7.13 µM (inactive) with K562; > 89.3 µM (inactive) in the experiment with SK-MEL-28; 6.05 µM (inactive) in the experiment on CCRF-CEM; 13.9 µM (inactive) in the experiment on ACHN; > 100 µM (inactive) in the experiment on SK-OV-3; 4.65 µM (inactive) in the experiment with MOLT-4. For the same compound, the GI50 in the experiment on HCT-15 was 7.71 µM; in the experiment with UACC-257, 67.3 µM (inactive).
As for `CCn1c(-c2ccc(OC(C)=O)cc2)c(C)c2cc(OC(C)=O)ccc21` [ZINDOXIFENE], the GI50 was 13.7 µM (inactive) in the experiment on PC-3; 21.9 µM (inactive) with 786-0; 20 µM (inactive) in the experiment on TK-10; 12.5 µM (inactive) in the experiment with MDA-MB-435; 24 µM (inactive) in the experiment on SF-295; 13.8 µM (inactive) in the experiment on SK-MEL-5. In addition, the GI50 in the experiment on SNB-19 was 31 µM (inactive); in the experiment with MDA-MB-231, 14.6 µM (inactive); with MDA-N, 17.3 µM (inactive); with OVCAR-3, 16.7 µM (inactive); with M14, 18.1 µM (inactive); in the experiment on COLO 205, 21.7 µM (inactive). The GI50 in the experiment with K562 was 11.8 µM (inactive); in the experiment with SK-MEL-28 it was 16.5 µM (inactive); with CCRF-CEM, 23.3 µM (inactive); in the experiment on ACHN, 19.4 µM (inactive); with SK-OV-3, 23.1 µM (inactive); with MOLT-4, 8.49 µM (inactive). Besides, the values for the GI50 in the experiment on HCT-15 and in the experiment with UACC-257 were 3.79 µM and 27 µM (inactive), respectively.
Turning to `O=c1c2cc([N+](=O)[O-])ccc2n(Cc2ccccc2)n1Cc1ccccc1`, the GI50 was 12 µM (inactive) in the experiment on PC-3; 21.7 µM (inactive) with 786-0; 22.8 µM (inactive) with TK-10; 10.8 µM (inactive) with MDA-MB-435; 15.1 µM (inactive) in the experiment on SF-295; 4.75 µM (inactive) with SK-MEL-5. Further, the GI50 with SNB-19 was 29.6 µM (inactive); in the experiment on MDA-MB-231 it was 12.6 µM (inactive); with MDA-N, 12.2 µM (inactive); in the experiment on OVCAR-3, 15.6 µM (inactive); in the experiment with M14, 13.1 µM (inactive); with COLO 205, 18.8 µM (inactive). Moreover, the GI50 was 6.38 µM (inactive) with K562; 18.5 µM (inactive) in the experiment with SK-MEL-28; 14.7 µM (inactive) in the experiment on CCRF-CEM; 16.2 µM (inactive) in the experiment on ACHN; > 10 µM (inactive) with SK-OV-3; 11.8 µM (inactive) in the experiment with MOLT-4. The results for the GI50 in the experiment with HCT-15 and with UACC-257 were 20.1 µM and 10.8 µM (inactive), respectively.
For the compound `CCOC(=O)c1cc2c(C(=O)c3ccc([N+](=O)[O-])cc3)c(C(C)=O)ccc2[nH]1`, the GI50 is > 100 µM (inactive) with PC-3; 7.36 µM (inactive) in the experiment with 786-0; 22.2 µM (inactive) in the experiment with TK-10; 7.66 µM (inactive) in the experiment with MDA-MB-435; 23.6 µM (inactive) in the experiment on SF-295; 16.6 µM (inactive) in the experiment on SK-MEL-5. Further, the GI50 is 22.1 µM (inactive) in the experiment with SNB-19; 16.9 µM (inactive) with MDA-MB-231; 11.8 µM (inactive) with MDA-N; > 100 µM (inactive) in the experiment on OVCAR-3; > 100 µM (inactive) in the experiment on M14; > 100 µM (inactive) with COLO 205. The GI50 with K562 is 26.7 µM (inactive); with SK-MEL-28, > 100 µM (inactive); in the experiment on CCRF-CEM, > 100 µM (inactive); in the experiment with ACHN it was 28.7 µM (inactive); in the experiment with SK-OV-3, 9.06 µM (inactive); with MOLT-4, > 100 µM (inactive). The GI50 in the experiment on HCT-15 was 50 µM; with UACC-257 it was > 100 µM (inactive).
